PMC5581131, “The novel sphingosine-1-phosphate receptors antagonist AD2900 affects lymphocyte activation and inhibits T-cell entry into the lymph nodes” (Oncotarget, 2017)

Experiments:
S1P3 = biological target: T1, S1P3 (Homo sapiens, UniProt Q99500); assay: S1P3 agonist test, S1P3 NFAT-bla CHO cells; assay type: cell-based; settings: S1P3 NFAT-BLA CHO cell line
T1 construct: expressed in transfected cells; host or cells: S1P3 NFAT-bla CHO cells
Method: (§1) Since AD2900 is a sphingolipid analogue with properties that resemble those of S1P, we intended to examine its ability to interact with the S1P receptors. To delineate whether AD2900 can function as an agonistic or antagonistic compound to any of the S1P receptors, we used a high-throughput screening cell-based assay, employing cell lines stably transfected with human S1P receptors 1, 2, 3, 4, or 5 [37]. In this experiment, a compound with an IC50 or EC50 value ≤10 μM for a certain S1P receptor is considered active as an antagonist or an agonist, respectively. The results illustrate that AD2900 acts as an antagonist to all S1P receptors (Table 1, Supplementary Figure 3). […] No agonist activation was evident.
(§2) The S1P1 agonist test and S1P2, S1P3, S1P4, and S1P5 agonist and antagonist tests were conducted as previously described using S1P1 CRE-bla CHO cells, S1P2 CRE-bla CHO cells, S1P3 NFAT-bla CHO cells, Tango™ S1P4 (EDG6)-bla U-2 OS cells, and Tango™ S1P5 ([…])-bla U-2 OS cells. The S1P1 antagonist assay was carried out according to the manufacturer’s instructions using a Tango™ S1P1 (EDG1)-bla U-2 OS Cell-Based Assay (Invitrogen, NY, USA).

S1P5 = biological target: T2, S1P5 (Homo sapiens, UniProt Q9H228); assay: S1P5 antagonist test, Tango S1P5-bla U-2 OS cells; assay type: cell-based; settings: S1P5 TANGO U-2 OS cell line
T2 construct: Tango fusion partner (protease site + GAL4-VP16 transcription factor); expressed in transfected cells; host or cells: Tango S1P5-bla U-2 OS cells
Method: as §1, §2

IFN-γ = IFN-γ secretion from activated PBMCs, ELISA; assay type: cell-based, human; settings: 1-day pretreatment, 5th day of MLR
Method: Figure 1 AD2900 inhibits human lymphocyte proliferation in allogeneic activation (A, B) The levels of proliferative response of human peripheral blood lymphocytes (PBMCs) after 1-day pretreatment with different concentrations of AD2900, AD2750, YZ138, YZ158, and YZ297 (A) or AD2900, FTY720, and SEW2871 (B) were tested by human allogeneic mixed lymphocyte reaction (MLR) assay, followed by a [3H] thymidine incorporation analysis. (C) Apoptosis of AD2900-treated activated PBMCs was tested by AnnexinV-propidium iodide (PI) FACS analysis following 1-day AD2900 pretreatment and MLR. All the samples were compared to the untreated PBMC control. (D) IFN-γ secretion from activated PBMCs was tested by ELISA following a 1-day AD2900 pretreatment in MLR. On the 5th day of hMLR, supernatants were collected and assayed for the level of IFN-γ. (E) Jurkat cell viability after a 1-day treatment with different concentrations of AD2900, FTY720, and SEW2871 was tested by XTT viability assay. […]
Human PBLs were collected from human whole blood collected from healthy donors. […] For the thymidine incorporation assay, after 4 days of co-culture, cells were pulsed with ^3H-thymidine at 1 μCi (0.037MBq) per well (PerkinElmer, MA, USA) for 16 additional hours and then harvested onto glass-fiber filters. ^3H-thymidine incorporation was measured using Top Count. […]

S1P2 = biological target: T3, S1P2 (Homo sapiens, UniProt O95136); assay: S1P2 agonist test, S1P2 CRE-bla CHO cells; assay type: cell-based; settings: S1P2 CRE-BLA CHO cell line
T3 construct: expressed in transfected cells; host or cells: S1P2 CRE-bla CHO cells
Method: as §1, §2

T1 sequence (Q99500 whole entry): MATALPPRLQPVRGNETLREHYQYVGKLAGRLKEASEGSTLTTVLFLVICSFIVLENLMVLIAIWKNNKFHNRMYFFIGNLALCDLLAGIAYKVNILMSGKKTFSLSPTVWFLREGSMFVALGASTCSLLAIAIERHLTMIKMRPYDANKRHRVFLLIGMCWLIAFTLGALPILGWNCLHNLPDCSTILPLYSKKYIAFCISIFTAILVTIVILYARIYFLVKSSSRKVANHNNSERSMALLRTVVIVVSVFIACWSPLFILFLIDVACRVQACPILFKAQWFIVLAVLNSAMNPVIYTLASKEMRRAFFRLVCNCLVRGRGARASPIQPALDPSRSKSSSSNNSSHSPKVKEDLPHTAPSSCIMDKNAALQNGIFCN
T2 sequence (Q9H228 whole entry, the tested form may be a part): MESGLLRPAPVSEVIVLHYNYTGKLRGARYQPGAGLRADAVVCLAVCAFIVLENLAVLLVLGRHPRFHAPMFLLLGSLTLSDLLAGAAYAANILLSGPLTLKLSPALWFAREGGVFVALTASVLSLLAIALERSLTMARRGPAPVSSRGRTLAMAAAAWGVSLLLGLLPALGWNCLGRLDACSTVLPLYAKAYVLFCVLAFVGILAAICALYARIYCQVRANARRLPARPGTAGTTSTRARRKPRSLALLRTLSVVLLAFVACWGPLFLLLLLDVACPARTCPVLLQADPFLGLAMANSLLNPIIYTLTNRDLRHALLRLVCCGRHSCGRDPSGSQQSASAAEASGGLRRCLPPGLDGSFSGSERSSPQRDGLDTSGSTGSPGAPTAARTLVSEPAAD
T3 sequence (O95136 whole entry): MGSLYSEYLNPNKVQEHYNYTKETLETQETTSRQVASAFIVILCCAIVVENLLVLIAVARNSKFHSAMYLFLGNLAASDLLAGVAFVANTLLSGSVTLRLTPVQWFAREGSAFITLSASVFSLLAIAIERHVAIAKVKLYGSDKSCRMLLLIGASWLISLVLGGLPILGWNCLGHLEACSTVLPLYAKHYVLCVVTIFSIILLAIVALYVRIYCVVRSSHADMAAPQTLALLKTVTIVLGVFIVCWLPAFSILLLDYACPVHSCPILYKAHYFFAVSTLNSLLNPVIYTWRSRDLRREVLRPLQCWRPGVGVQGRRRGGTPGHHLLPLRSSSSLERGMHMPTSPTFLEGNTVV

SMILES: CCCCCCCCCCCCCCCCNC(CO)(CO)CO [AD2900]
- EC50 (S1P3): > 50 µM
- IC50 (S1P5): 0.405 µM
- IFN-γ concentrations in the supernatant (IFN-γ): reduced level
- EC50 (S1P2): > 50 µM
